Experimental data: patent publication US20200187502A1, “MICROBIOCIDAL OXADIAZOLE DERIVATIVES” (SYNGENTA PARTICIPATIONS AG, priority 2017, published 2020)

Legend:
[1] = tested on: Glomerella lacenarium (Colletotrichum lacenarium); assay: Fungicidal activity, liquid culture, cucumber preventative (anthracnose); format: cell-based; conditions: 20 ppm in the applied formulation, liquid culture in PDB, inhibition of growth measured photometrically 3 to 4 days after application, compared to untreated control, read-out: disease control
Summary of the method: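 Test compound in DMSO is placed in a microtiter plate, then potato dextrose broth containing conidia from cryogenic storage is added. Incubation runs at 24° C., and growth inhibition is read photometrically after 3 to 4 days.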

[2] = tested on: Puccinia recondita f. Sp. Tritici; assay: Fungicidal activity, wheat leaf disc preventative (brown rust); format: in vivo; conditions: foliar, 200 ppm in the applied formulation, wheat leaf segments cv. Kanzler, compared to untreated control, 7 to 9 days after application, read-out: disease control
Summary of the method: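 Preventative leaf-segment test: spray application of diluted formulated compound on wheat cv. Kanzler, spore inoculation after 1 day. Percent control relative to untreated segments rated 7 to 9 days post-application, with incubation at 19° C, 75% relative humidity, 12 h photoperiod.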

[3] = tested on: Puccinia recondita f. Sp. Tritici; assay: Fungicidal activity, wheat leaf disc curative (brown rust); format: in vivo; conditions: foliar, 200 ppm in the applied formulation, wheat leaf segments cv. Kanzler, curative (applied 1 day after inoculation), compared to untreated control, 6 to 8 days after application, read-out: disease control
Summary of the method: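 Segments of wheat (cultivar Kanzler) sit on agar and are spore-inoculated first; after one day in darkness at 19° C and 75% RH the diluted formulated compound is sprayed on. A 12 h photoperiod follows at the same temperature and humidity before disease is scored against untreated controls.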

O=C(N1CCCO1)N(Cc1ccc(-c2noc(C(F)(F)F)n2)s1)OCC(F)F [Compound 5.64, N-(2,2-difluoroethoxy)-N-[[5-[5-(trifluoromethyl)-1,2,4-oxadiazol-3-yl]-2-thienyl]methyl]isoxazolidine-2-carboxamide]
≥ 80%: inhibition of growth at 20 ppm [1] | pest or weed control at 200 ppm [2] | pest or weed control at 200 ppm [3]

CCCN(CC1CC1)C(=O)N(C)Cc1ccc(-c2noc(C(F)(F)F)n2)s1 [Compound 5.57, 1-(cyclopropylmethyl)-3-methyl-1-propyl-3-[[5-(5-(trifluoromethyl)-1,2,4-oxadiazol-3-yl]-2-thienyl]methyl]urea]
≥ 80%: inhibition of growth at 20 ppm [1] | pest or weed control at 200 ppm [2] | pest or weed control at 200 ppm [3]

CC(C)N(Cc1ccc(-c2noc(C(F)(F)F)n2)s1)C(=O)C1CCOC1 (stereo not drawn) [Compound 5.28, N-isopropyl-N-[[5-[5-(trifluoromethyl)-1,2,4-oxadiazol-3-yl]-2-thienyl]methyl]tetrahydrofuran-3-carboxamide]
≥ 80%: inhibition of growth at 20 ppm [1] | pest or weed control at 200 ppm [2] | pest or weed control at 200 ppm [3]

CN(Cc1ccc(-c2noc(C(F)(F)F)n2)s1)C(=O)N1CCC2(CC2)C1 [Compound 5.55, N-methyl-N-[[5-[5-(trifluoromethyl)-1,2,4-oxadiazol-3-yl]-2-thienyl]methyl]-5-azaspiro[2.4]heptane-5-carboxamide]
≥ 80%: inhibition of growth at 20 ppm [1] | pest or weed control at 200 ppm [2] | pest or weed control at 200 ppm [3]

CCN(Cc1ccc(-c2noc(C(F)(F)F)n2)s1)C(=O)C(=O)Cc1ccccc1 [Compound 6.43, N-ethyl-2-oxo-3-phenyl-N-[[5-[5-(trifluoromethyl)-1,2,4-oxadiazol-3-yl]-2-thienyl]methyl]propanamide]
≥ 80%: inhibition of growth at 20 ppm [1] | pest or weed control at 200 ppm [2] | pest or weed control at 200 ppm [3]

CCN(Cc1ccc(-c2noc(C(F)(F)F)n2)s1)C(=O)C(=O)c1ccccc1 [Compound 6.40, N-ethyl-2-oxo-2-phenyl-N-[[5-[5-(trifluoromethyl)-1,2,4-oxadiazol-3-yl]-2-thienyl]methyl]acetamide]
≥ 80%: inhibition of growth at 20 ppm [1] | pest or weed control at 200 ppm [2] | pest or weed control at 200 ppm [3]

CN(Cc1ccc(-c2noc(C(F)(F)F)n2)s1)C(=O)C(=O)c1cccs1 [Compound 6.52, N-methyl-2-oxo-2-(2-thienyl)-N-[[5-[5-(trifluoromethyl)-1,2,4-oxadiazol-3-yl]-2-thienyl]methyl]acetamide]
≥ 80%: inhibition of growth at 20 ppm [1] | pest or weed control at 200 ppm [2] | pest or weed control at 200 ppm [3]

CC(C)N(Cc1ccc(-c2noc(C(F)(F)F)n2)s1)C(=O)C1(C)COC1 [Compound 5.32, N-isopropyl-3-methyl-N-[[5-[5-(trifluoromethyl)-1,2,4-oxadiazol-3-yl]-2-thienyl]methyl]oxetane-3-carboxamide]
≥ 80%: inhibition of growth at 20 ppm [1] | pest or weed control at 200 ppm [2] | pest or weed control at 200 ppm [3]

N#CCC(=O)N(Cc1ccc(-c2noc(C(F)(F)F)n2)s1)C1CC1 [Compound 4.59, 2-cyano-N-cyclopropyl-N-[[5-[5-(trifluoromethyl)-1,2,4-oxadiazol-3-yl]-2-thienyl]methyl]acetamide]
≥ 80%: inhibition of growth at 20 ppm [1] | pest or weed control at 200 ppm [2] | pest or weed control at 200 ppm [3]

CC1(C(=O)N(Cc2ccc(-c3noc(C(F)(F)F)n3)s2)C2CC2)CC1 [Compound 5.39, N-cyclopropyl-1-methyl-N-[[5-[5-(trifluoromethyl)-1,2,4-oxadiazol-3-yl]-2-thienyl]methyl]cyclopropanecarboxamide]
≥ 80%: inhibition of growth at 20 ppm [1] | pest or weed control at 200 ppm [2] | pest or weed control at 200 ppm [3]

CC(=O)N(C)Cc1ccc(-c2noc(C(F)(F)F)n2)s1 [Compound 4.41, N-methyl-N-[[5-[5-(trifluoromethyl)-1,2,4-oxadiazol-3-yl]-2-thienyl]methyl]acetamide]
≥ 80%: inhibition of growth at 20 ppm [1] | pest or weed control at 200 ppm [2] | pest or weed control at 200 ppm [3]

CCN(Cc1ccc(-c2noc(C(F)(F)F)n2)s1)C(=O)C1(C)CC1 [Compound 5.12, N-ethyl-1-methyl-N-[[5-[5-(trifluoromethyl)-1,2,4-oxadiazol-3-yl]-2-thienyl]methyl]cyclopropanecarboxamide]
≥ 80%: inhibition of growth at 20 ppm [1] | pest or weed control at 200 ppm [2] | pest or weed control at 200 ppm [3]

CC(C)N(Cc1ccc(-c2noc(C(F)(F)F)n2)s1)C(=O)CC(F)(F)F [Compound 4.50, 3,3,3-trifluoro-N-isopropyl-N-[[5-[5-(trifluoromethyl)-1,2,4-oxadiazol-3-yl]-2-thienyl]methyl]propanamide]
≥ 80%: inhibition of growth at 20 ppm [1] | pest or weed control at 200 ppm [2] | pest or weed control at 200 ppm [3]

CCN(CC)C(=O)N(Cc1ccc(-c2noc(C(F)(F)F)n2)s1)C1CC1 [Compound 4.90, 1-cyclopropyl-3,3-diethyl-1-[[5-[5-(trifluoromethyl)-1,2,4-oxadiazol-3-yl]-2-thienyl]methyl]urea]
≥ 80%: inhibition of growth at 20 ppm [1] | pest or weed control at 200 ppm [2] | pest or weed control at 200 ppm [3]

CC(=O)C(=O)N(Cc1ccc(-c2noc(C(F)(F)F)n2)s1)C1CC1 [Compound 6.11, N-cyclopropyl-2-oxo-N-[[5-[5-(trifluoromethyl)-1,2,4-oxadiazol-3-yl]-2-thienyl]methyl]propanamide]
≥ 80%: inhibition of growth at 20 ppm [1] | pest or weed control at 200 ppm [2] | pest or weed control at 200 ppm [3]

CC1CC1C(=O)N(Cc1ccc(-c2noc(C(F)(F)F)n2)s1)OCC(F)F (stereo not drawn) [Compound 5.50, N-(2,2-difluoroethoxy)-2-methyl-N-[[5-[5-(trifluoromethyl)-1,2,4-oxadiazol-3-yl]-2-thienyl]methyl]cyclopropanecarboxamide]
≥ 80%: inhibition of growth at 20 ppm [1] | pest or weed control at 200 ppm [2] | pest or weed control at 200 ppm [3]

CCN(Cc1ccc(-c2noc(C(F)(F)F)n2)s1)C(=O)C(=O)c1ccco1 [Compound 6.46, N-ethyl-2-(2-furyl)-2-oxo-N-[[5-[5-(trifluoromethyl)-1,2,4-oxadiazol-3-yl]-2-thienyl]methyl]acetamide]
≥ 80%: inhibition of growth at 20 ppm [1] | pest or weed control at 200 ppm [2] | pest or weed control at 200 ppm [3]

CC(C)C(=O)N(Cc1ccc(-c2noc(C(F)(F)F)n2)s1)C1CC1 [Compound 4.3, N-cyclopropyl-2-methyl-N-[[5-[5-(trifluoromethyl)-1,2,4-oxadiazol-3-yl]-2-thienyl]methyl]propanamide]
≥ 80%: inhibition of growth at 20 ppm [1] | pest or weed control at 200 ppm [2] | pest or weed control at 200 ppm [3]

CON(C)C(=O)N(Cc1ccc(-c2noc(C(F)(F)F)n2)s1)OC [Compound 1.6, 1,3-dimethoxy-1-methyl-3-[[5-[5-(trifluoromethyl)-1,2,4-oxadiazol-3-yl]-2-thienyl]methyl]urea]
≥ 80%: inhibition of growth at 20 ppm [1] | pest or weed control at 200 ppm [2] | pest or weed control at 200 ppm [3]

O=C(C1CCOC1)N(Cc1ccc(-c2noc(C(F)(F)F)n2)s1)C1CC1 (stereo not drawn) [Compound 5.37, N-cyclopropyl-N-[[5-[5-(trifluoromethyl)-1,2,4-oxadiazol-3-yl]-2-thienyl]methyl]tetrahydrofuran-3-carboxamide]
≥ 80%: inhibition of growth at 20 ppm [1] | pest or weed control at 200 ppm [2] | pest or weed control at 200 ppm [3]

CCN(Cc1ccc(-c2noc(C(F)(F)F)n2)s1)C(=O)N(CC(F)F)C1CC1 [Compound 5.51, 1-cyclopropyl-1-(2,2-difluoroethyl)-3-ethyl-3-[[5-[5-(trifluoromethyl)-1,2,4-oxadiazol-3-yl]-2-thienyl]methyl]urea]
≥ 80%: inhibition of growth at 20 ppm [1] | pest or weed control at 200 ppm [2] | pest or weed control at 200 ppm [3]

CCN(Cc1ccc(-c2noc(C(F)(F)F)n2)s1)C(=O)C1CCOC1 (stereo not drawn) [Compound 5.10, N-ethyl-N-[[5-[5-(trifluoromethyl)-1,2,4-oxadiazol-3-yl]-2-thienyl]methyl]tetrahydrofuran-3-carboxamide]
≥ 80%: inhibition of growth at 20 ppm [1] | pest or weed control at 200 ppm [2] | pest or weed control at 200 ppm [3]

CN(Cc1ccc(-c2noc(C(F)(F)F)n2)s1)C(=O)C1(C)COC1 [Compound 5.23, N,3-dimethyl-N-[[5-[5-(trifluoromethyl)-1,2,4-oxadiazol-3-yl]-2-thienyl]methyl]oxetane-3-carboxamide]
≥ 80%: inhibition of growth at 20 ppm [1] | pest or weed control at 200 ppm [2] | pest or weed control at 200 ppm [3]
